From patent US20140105957A1, “BIS-(ALPHA-AMINO-DIOL-DIESTER) CONTAINING POLYESTERAMIDE FOR OPHTAMOLOGY” (DSM IP ASSETS B.V., priority 2011, published 2014)

Test: Stability of Latanoprost in PEA III formulations and compatibility with film casting, evaluated by 1H NMR
Format: physicochemical
Method: For film casting, solutions were prepared in a suitable solvent resulting in solutions with viscosities low enough for solvent casting. Exact amounts of PEA-III ac Bz and API (Active Pharmaceutical Ingredient) were weighed and dissolved with a suitable solvent. The API payload is determined over the polymer weight. API payload of 10% was used. The API/polymer/solvent formulations were poured into petri dishes (4 cm diameter) and covered to reduce evaporation rates of the solvent and prevent formation of air bubbles. The solvent was evaporated for 2 days at TT in a fumehood followed by 2 days @ 750 mBar, 1 day @ 500 mBar and 2 days at full vacuum. From the resulting films, discs were cut with diameter of 10 mm and approximate thicknesses of 500 μm.
A sample was prepared by dissolving ˜10 mg of material in 1 ml of deuterated THF in a 10 ml glass vial. The sample was allowed sufficient time for complete dissolution. ^1H NMR spectra was recorded on a 300 MHz Bruker Avance 300, ARX 400 NMR instrument.
Stability of Latanoprost in formulations and compatibility with film casting procedure was evaluated by ^1H NMR.

SMILES: CC(C)OC(=O)CCC/C=C\C[C@@H]1[C@@H](CC[C@@H](O)CCc2ccccc2)[C@H](O)C[C@@H]1O [Latanoprost]
- Stability of Latanoprost (degradation of API) by 1H NMR (PEA III formulations with Latanoprost stored @ 4° C. for 3 months): did not indicate any degradation
- Stability of Latanoprost (degradation of API) by 1H NMR (initial PEA III formulations with Latanoprost, after film casting): did not indicate any degradation
